Test results as given in ChEMBL document CHEMBL1201862, “PubChem BioAssay data set” (2004).
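Step 1: Grow cells in 96-well plates. Step 2: Expose to compound for 48 hours at 5 concentrations. Step 3: Interpolate endpoints linearly; if unreached, use highest concentration. GI50 marks 50% less growth.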 Active and inactive are the calls of the source. No stated cut-off is given here; in the data, active = GI50 up to about 1.1 µM and inactive = higher.

Columns and labels:
Test in all cases: DTP human tumour cell line panel, 48 h
OVCAR-4 = system: OVCAR-4
Hs-578T = system: Hs-578T
NCI-H23 = system: NCI-H23
SK-MEL-28 = system: SK-MEL-28
M14 = system: M14
TK-10 = system: TK-10
OVCAR-5 = system: OVCAR-5
NCI-H522 = system: NCI-H522
UO-31 = system: UO-31
OVCAR-3 = system: OVCAR-3
HCC 2998 = system: HCC 2998
MCF7 = system: MCF7
HCT-15 = system: HCT-15
NCI-H460 = system: NCI-H460
SK-OV-3 = system: SK-OV-3
MOLT-4 = system: MOLT-4
SN12C = system: SN12C
CCRF-CEM = system: CCRF-CEM
SF-268 = system: SF-268
IGROV-1 = system: IGROV-1

## CC(C)=CCc1c2c(c3occ(-c4ccc(O)cc4)c(=O)c3c1O)CC(C(C)(C)O)O2 (stereo not given) [SENEGALENSIN]
OVCAR-4
  GI50: 12.9 µM (inactive)
Hs-578T
  GI50: 36.1 µM (inactive)
NCI-H23
  GI50: 18.7 µM (inactive)
SK-MEL-28
  GI50: 24.3 µM (inactive)
M14
  GI50: 14.5 µM (inactive)
TK-10
  GI50: 16.5 µM (inactive)
OVCAR-5
  GI50: 19.1 µM (inactive)
NCI-H522
  GI50: 15.8 µM (inactive)
UO-31
  GI50: 10 µM (inactive)
OVCAR-3
  GI50: 14.4 µM (inactive)
HCC 2998
  GI50: 11.2 µM (inactive)
MCF7
  GI50: 12.8 µM (inactive)
HCT-15
  GI50: 13.1 µM
NCI-H460
  GI50: 12.5 µM (inactive)
SK-OV-3
  GI50: 18.8 µM (inactive)
MOLT-4
  GI50: 11.7 µM (inactive)
SN12C
  GI50: 19.6 µM (inactive)
CCRF-CEM
  GI50: 17.5 µM (inactive)
SF-268
  GI50: 26.5 µM (inactive)
IGROV-1
  GI50: 2.8 µM (inactive)

## CCCC(=O)OCC(COC(=O)CCC)OC(=O)CCC [TRIBUTYRIN]
OVCAR-4
  GI50: > 100 µM (inactive)
Hs-578T
  GI50: 57.9 µM (inactive)
NCI-H23
  GI50: > 100 µM (inactive)
SK-MEL-28
  GI50: 66.1 µM (inactive)
M14
  GI50: 58.5 µM (inactive)
TK-10
  GI50: 27.3 µM (inactive)
OVCAR-5
  GI50: 57.3 µM (inactive)
NCI-H522
  GI50: 17.9 µM (inactive)
UO-31
  GI50: 34.4 µM (inactive)
OVCAR-3
  GI50: > 100 µM (inactive)
HCC 2998
  GI50: > 100 µM (inactive)
MCF7
  GI50: > 100 µM (inactive)
HCT-15
  GI50: > 100 µM
NCI-H460
  GI50: 99.8 µM (inactive)
SK-OV-3
  GI50: 61.2 µM (inactive)
MOLT-4
  GI50: 73.5 µM (inactive)
SN12C
  GI50: > 100 µM (inactive)
CCRF-CEM
  GI50: 46.1 µM (inactive)
SF-268
  GI50: > 100 µM (inactive)
IGROV-1
  GI50: > 100 µM (inactive)

## Nc1nc(N)c2cc(Sc3cccc(C(F)(F)F)c3)ccc2n1 [WR-159412]
OVCAR-4
  GI50: 6.78 µM (inactive)
Hs-578T
  GI50: 2.66 µM (inactive)
NCI-H23
  GI50: 2.99 µM (inactive)
SK-MEL-28
  GI50: 4.46 µM (inactive)
M14
  GI50: 1.14 µM (inactive)
TK-10
  GI50: 10.1 µM (inactive)
OVCAR-5
  GI50: 13 µM (inactive)
NCI-H522
  GI50: 2.7 µM (inactive)
UO-31
  GI50: 1.2 µM (inactive)
OVCAR-3
  GI50: 3.87 µM (inactive)
HCC 2998
  GI50: 1.39 µM (inactive)
MCF7
  GI50: 2.86 µM (inactive)
HCT-15
  GI50: 0.499 µM
NCI-H460
  GI50: 0.466 µM (active)
SK-OV-3
  GI50: 9.08 µM (inactive)
MOLT-4
  GI50: 0.271 µM (active)
SN12C
  GI50: 0.729 µM (active)
CCRF-CEM
  GI50: 0.53 µM (active)
SF-268
  GI50: 2.22 µM (inactive)
IGROV-1
  GI50: 0.708 µM (active)
